Measured values: patent publication US11147763B2, “Vaginal ring with visual indication of use” (RESEARCH TRIANGLE INSTITUTE, priority 2015, dated 2021)

Key:
[1] = Screen of pH-based color changing tracers in biocompatible-grade silicone material; type: physicochemical; conditions: biocompatible-grade silicone placed into an aqueous environment
Procedure: For the second approach, research efforts focused on developing systems for analyzing biological constituents that diffuse into the ring causing a pH change (FIG. 2B, ii). To accomplish this testing strategy, a variety of pH-based color changing formulations were evaluated in biocompatible-grade silicone material. […] This material screen also facilitated the abandonment of tracers with poor performance, such as highly hydrophilic molecular families with high expulsion tendencies.

[2] = Diffusion of indicator out of silicone (PDMS) vaginal ring into surrounding solution; type: physicochemical; conditions: aqueous conditions, over the course of one week (FIG. 3B)
Procedure: Two different approaches were tested to assess the usage of the vaginal ring (FIG. 2A and FIG. 2B). First, a system with signal change resultant of indicator diffusion (i) out of the ring was tested (FIG. 2A).
In these cases, silicone (polydimethyl siloxane, PDMS) was utilized in combination with rhodamine-B, fluorescein, and a rhodamine-B/Brilliant Blue combination. (FIG. 3A).

Row | Compound | leaching of tracer from the silicone material [1] | release of indicator from the silicone material [2]
1 | CN(C)c1ccc(/N=N/c2ccccc2C(=O)O)cc1 [Methyl Red] | readily leached from the silicone material | 
2 | O=C1c2ccccc2C(=O)c2c1ccc(O)c2O [Alazarin] | readily leached from the silicone material | 
3 | CCN(CC)c1ccc2c(-c3ccccc3C(=O)O)c3ccc(=[N+](CC)CC)cc-3oc2c1.[Cl-] [rhodamine-B] |  | readily released from the silicone material
